According to ChEMBL document CHEMBL1201862, “PubChem BioAssay data set” (2004):
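Method: 48-hour compound exposure of cells in 96-well plates, five concentrations, linear interpolation of endpoints. The concentration for 50% growth inhibition is given as GI50.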 Active and inactive are the calls of the source. Rule as the data show it: active = GI50 up to about 1.1 µM and inactive = higher.

Columns and labels:
Assay in all cases: NCI-60 cell line screen, 48 h
HCT-116 = tested on: HCT-116
SF-268 = tested on: SF-268
NCI-H23 = tested on: NCI-H23
OVCAR-4 = tested on: OVCAR-4
A549 = tested on: A549
MDA-N = tested on: MDA-N
ACHN = tested on: ACHN
UACC-62 = tested on: UACC-62
SK-MEL-5 = tested on: SK-MEL-5
SK-MEL-28 = tested on: SK-MEL-28
SK-OV-3 = tested on: SK-OV-3
M14 = tested on: M14
HCT-15 = tested on: HCT-15
COLO 205 = tested on: COLO 205
A498 = tested on: A498
MDA-MB-231 = tested on: MDA-MB-231
SK-MEL-2 = tested on: SK-MEL-2
SR = tested on: SR
HL-60 = tested on: HL-60

| Structure (SMILES) | GI50 (HCT-116) | GI50 (SF-268) | GI50 (NCI-H23) | GI50 (OVCAR-4) | GI50 (A549) | GI50 (MDA-N) | GI50 (ACHN) | GI50 (UACC-62) | GI50 (SK-MEL-5) | GI50 (SK-MEL-28) | GI50 (SK-OV-3) | GI50 (M14) | GI50 (HCT-15) [µM] | GI50 (COLO 205) | GI50 (A498) | GI50 (MDA-MB-231) | GI50 (SK-MEL-2) | GI50 (SR) | GI50 (HL-60) |
| --- | --- | --- | --- | --- | --- | --- | --- | --- | --- | --- | --- | --- | --- | --- | --- | --- | --- | --- | --- |
| CC1(C)COCN1COC1CCCCC1 | > 100 µM (inactive) | > 100 µM (inactive) | > 100 µM (inactive) | > 100 µM (inactive) | > 100 µM (inactive) | > 100 µM (inactive) | > 100 µM (inactive) | > 100 µM (inactive) | > 100 µM (inactive) | > 100 µM (inactive) | > 100 µM (inactive) | > 100 µM (inactive) | > 100 | > 100 µM (inactive) | > 100 µM (inactive) | > 100 µM (inactive) | > 100 µM (inactive) | 20.1 µM (inactive) | – |
| CC1CC[C@@]2(OC1)OC1C[C@H]3[C@@H]4CC=C5C[C@@H](OC6OC(CO)C(OC7OC(CO)C(O)C(O)C7O)C(O)C6OC6OC(C)C(O)C(O)C6O)CC[C@]5(C)[C@H]4CC[C@]3(C)C1[C@@H]2C (stereo not given in full) | 0.838 µM (active) | 0.593 µM (active) | 0.783 µM (active) | 1.53 µM (inactive) | 0.746 µM (active) | 0.863 µM (active) | 1.24 µM (inactive) | 0.469 µM (active) | 0.543 µM (active) | 0.53 µM (active) | 3.3 µM (inactive) | 0.479 µM (active) | 3.52 | 0.526 µM (active) | 0.611 µM (active) | 0.435 µM (active) | 0.759 µM (active) | 0.402 µM (active) | 0.753 µM (active) |
| O=[N+]([O-])c1ccc2[nH]ncc2c1Cl | 24 µM (inactive) | – | – | 26.8 µM (inactive) | 45 µM (inactive) | 16.1 µM (inactive) | 24.7 µM (inactive) | 34.2 µM (inactive) | 13.3 µM (inactive) | 33.5 µM (inactive) | 53.5 µM (inactive) | – | 23.3 | 13.4 µM (inactive) | 74.6 µM (inactive) | 0.0108 µM (active) | 20.2 µM (inactive) | 1.03 µM (active) | 29.8 µM (inactive) |
| O=C1Nc2ccc(Br)cc2/C1=N/Nc1ccccc1[N+](=O)[O-] | 32.4 µM (inactive) | 20.2 µM (inactive) | 3.56 µM (inactive) | 14.4 µM (inactive) | 9.29 µM (inactive) | 17 µM (inactive) | 3.83 µM (inactive) | 22.2 µM (inactive) | 8.63 µM (inactive) | 19.7 µM (inactive) | 24 µM (inactive) | 13.9 µM (inactive) | 20.5 | 12.1 µM (inactive) | 28 µM (inactive) | 1.92 µM (inactive) | 25.2 µM (inactive) | 10.2 µM (inactive) | 33.2 µM (inactive) |
| C[C@H]1C2Cc3cc(N)ccc3[C@@]1(C)CCN2CCc1ccccc1 | 41.8 µM (inactive) | 76 µM (inactive) | 32.8 µM (inactive) | 48.2 µM (inactive) | 42.7 µM (inactive) | 66.2 µM (inactive) | 41.2 µM (inactive) | 45.5 µM (inactive) | 18.3 µM (inactive) | > 100 µM (inactive) | 24 µM (inactive) | 20.9 µM (inactive) | 25.2 | 16.8 µM (inactive) | 29.4 µM (inactive) | > 100 µM (inactive) | 50.7 µM (inactive) | 19.3 µM (inactive) | 28.9 µM (inactive) |
| CC(=O)O[C@H]1[C@H](OC(C)=O)[C@@H](CN=[N+]=[N-])OCO[C@@H]1CN=[N+]=[N-] | > 100 µM (inactive) | > 100 µM (inactive) | > 100 µM (inactive) | > 100 µM (inactive) | > 100 µM (inactive) | > 100 µM (inactive) | > 100 µM (inactive) | > 100 µM (inactive) | > 100 µM (inactive) | > 100 µM (inactive) | > 100 µM (inactive) | > 100 µM (inactive) | > 100 | > 100 µM (inactive) | > 100 µM (inactive) | > 100 µM (inactive) | > 100 µM (inactive) | > 100 µM (inactive) | > 100 µM (inactive) |
| COC(=O)Cc1c(-c2c(CC(=O)OC)c3ccccc3n2C2OC(COC3OC(COC(C)=O)C(OC(C)=O)C(OC(C)=O)C3OC(C)=O)C(O)C(O)C2O)[nH]c2ccccc12 (stereo not given) | > 100 µM (inactive) | – | > 100 µM (inactive) | – | > 100 µM (inactive) | > 100 µM (inactive) | > 100 µM (inactive) | > 100 µM (inactive) | > 100 µM (inactive) | > 100 µM (inactive) | 74.8 µM (inactive) | > 100 µM (inactive) | > 100 | > 100 µM (inactive) | 57.8 µM (inactive) | 29.2 µM (inactive) | 24.4 µM (inactive) | > 100 µM (inactive) | > 100 µM (inactive) |
| COc1ccc(/C=N\N(C)Cc2cccc3ccsc23)cc1 | 72.4 µM (inactive) | > 100 µM (inactive) | 60.4 µM (inactive) | 92.5 µM (inactive) | > 100 µM (inactive) | 70.6 µM (inactive) | > 100 µM (inactive) | > 100 µM (inactive) | 28.6 µM (inactive) | > 100 µM (inactive) | > 100 µM (inactive) | > 100 µM (inactive) | 92.9 | > 100 µM (inactive) | > 100 µM (inactive) | > 100 µM (inactive) | – | 90.2 µM (inactive) | > 100 µM (inactive) |
| CCOC(=O)/C=C(/C(=O)OCC)n1cc(C)c(=O)n(/C(=C/C(=O)OCC)C(=O)OCC)c1=O | 1.91 µM (inactive) | 8.45 µM (inactive) | 4.03 µM (inactive) | 8.47 µM (inactive) | 15.9 µM (inactive) | 3.78 µM (inactive) | 1.89 µM (inactive) | 5.97 µM (inactive) | 7.31 µM (inactive) | 2.19 µM (inactive) | 17.5 µM (inactive) | 2.31 µM (inactive) | 1.56 | 1.32 µM (inactive) | 19.8 µM (inactive) | 3.4 µM (inactive) | 14.7 µM (inactive) | 1.89 µM (inactive) | 0.255 µM (active) |
| Cc1ccc(NCc2nnc3c(-c4ccccc4)nc4ccccc4n23)cc1 | 21.5 µM (inactive) | 43.6 µM (inactive) | – | 28.2 µM (inactive) | 23.2 µM (inactive) | 26.2 µM (inactive) | 23.9 µM (inactive) | 33.7 µM (inactive) | 14.4 µM (inactive) | 64 µM (inactive) | 40.6 µM (inactive) | 37.6 µM (inactive) | 38.5 | 32.8 µM (inactive) | 32.6 µM (inactive) | 24.5 µM (inactive) | 24.8 µM (inactive) | 13 µM (inactive) | 14.4 µM (inactive) |
| CCOC(=O)/C=C(/C(=O)OCC)n1cc(Cl)c(=O)n(CC(=O)OCC)c1=O | 4.97 µM (inactive) | 7.05 µM (inactive) | 5.74 µM (inactive) | 6.03 µM (inactive) | 6.41 µM (inactive) | 5.81 µM (inactive) | 3.4 µM (inactive) | 4.53 µM (inactive) | 5.66 µM (inactive) | 5.02 µM (inactive) | > 25 µM (inactive) | 4.57 µM (inactive) | 5.46 | 0.787 µM (active) | 17.5 µM (inactive) | 5.71 µM (inactive) | 4.84 µM (inactive) | 5.24 µM (inactive) | 3.85 µM (inactive) |
| CC1=C(C(=O)OCCO[N+](=O)[O-])C(c2cccc([N+](=O)[O-])c2)C(C(=O)OC(C)C)=C(C)N1 (stereo not given) | 10.5 µM (inactive) | 13.1 µM (inactive) | 17.6 µM (inactive) | 3.76 µM (inactive) | 12.9 µM (inactive) | 14.9 µM (inactive) | 14.2 µM (inactive) | 14.5 µM (inactive) | 12.8 µM (inactive) | 14.3 µM (inactive) | 16.7 µM (inactive) | 16 µM (inactive) | 14.1 | 10.7 µM (inactive) | 19.4 µM (inactive) | 13.3 µM (inactive) | 13 µM (inactive) | 24.8 µM (inactive) | > 100 µM (inactive) |
| COc1ccc(CNC2=N/C(=C\c3ccccc3Cl)C(=O)N2C)cc1 | 18.4 µM (inactive) | 45 µM (inactive) | – | 23.9 µM (inactive) | 31.1 µM (inactive) | 18.8 µM (inactive) | 29.6 µM (inactive) | 17.5 µM (inactive) | 19.9 µM (inactive) | 33 µM (inactive) | 51.2 µM (inactive) | 17.9 µM (inactive) | 28.4 | 24.9 µM (inactive) | 25.7 µM (inactive) | 26.4 µM (inactive) | 19.3 µM (inactive) | 25.2 µM (inactive) | 25.8 µM (inactive) |
| Oc1ccccc1/C=N/c1ccc(-c2nc3ccccc3[nH]2)cc1 | 53.6 µM (inactive) | 43 µM (inactive) | 50.5 µM (inactive) | > 100 µM (inactive) | > 100 µM (inactive) | 54.7 µM (inactive) | > 100 µM (inactive) | – | 27.8 µM (inactive) | > 100 µM (inactive) | > 100 µM (inactive) | 63.4 µM (inactive) | 29.6 | 47.2 µM (inactive) | > 100 µM (inactive) | 40.5 µM (inactive) | > 100 µM (inactive) | 44.7 µM (inactive) | 25.2 µM (inactive) |
| C=CC(C)(C)NC(C(=O)N1CCC[C@H]1c1nc(-c2nc(C(=O)OCC=C(C)C)c(C)o2)c(C)o1)C(C)C (stereo not given in full) | > 60.7 µM (inactive) | > 100 µM (inactive) | > 100 µM (inactive) | 33.3 µM (inactive) | > 58.9 µM (inactive) | 23.9 µM (inactive) | > 45.9 µM (inactive) | 37.8 µM (inactive) | 47.1 µM (inactive) | > 66.1 µM (inactive) | > 83 µM (inactive) | > 62.2 µM (inactive) | > 52.1 | 34 µM (inactive) | 47.1 µM (inactive) | 47 µM (inactive) | > 45.3 µM (inactive) | 32.2 µM (inactive) | 17.1 µM (inactive) |
